# Assay results from patent US8916605B2, “Compounds and methods for treating cancer and viral infections” (priority 2009, dated 2014).
# Columns and labels:
# [1] = tested on: Influenza A (strain A/PR/8/34); experiment: Anti-influenza cytopathic effect (CPE) assay in MDCK cells, prophylactic regimen (Example 7); format: cell-based; design: key to CPE score: 1: Complete monolayer with few gaps or dead cells; 2: Some gaps in the monolayer; dead cells more evident; 3: Increasing number of gaps in the monolayer concurrent with dead cells; 4: Gaps widely distributed throughout the monolayer and of increasing size; 5: Large holes forming as smaller gaps merge; copious dead cells evident; 6: Monolayer integrity lost. Small islands of attached cells amid predominantly dead cells; conditions: for CPE score: Influenza A, MDCK
# [2] = tested on: Influenza B (strain B/Lee/40); experiment: as above; format: cell-based; design: key to CPE score: 1: Complete monolayer with few gaps or dead cells; 2: Some gaps in the monolayer; dead cells more evident; 3: Increasing number of gaps in the monolayer concurrent with dead cells; 4: Gaps widely distributed throughout the monolayer and of increasing size; 5: Large holes forming as smaller gaps merge; copious dead cells evident; 6: Monolayer integrity lost. Small islands of attached cells amid predominantly dead cells; conditions: for CPE score: Influenza B, MDCK, virus + DMSO control 4
# [3] = tested on: all three transformed neuronal cell lines (IMR32, NG108, NSC34); experiment: MTT (CIMA) cell proliferation assay (Example 4); conditions: 72 h post-treatment; 0.5-250 μg/ml
# Protocol: (§1) Compound preparation: Stock solutions of test compounds were prepared in dimethylsulfoxide (DMSO) at 250 mg/ml. Working concentrations of 10 mg/ml were subsequently prepared from the stock solution and stored in 50 μl aliquots at −20° C. until used.
# Cells and cell culture: Three classes of cells were evaluated: 1) neuroblastoma cells, 2) neuroglioma cells, and 3) non-transformed human neurons (see below). All cells were maintained in appropriate culture medium supplemented with 10% fetal calf serum (FCS) and antibiotics in a humidified, 5% CO2 environment. Cells were passaged as required by trypsinization.
# Assay conditions: The effects of the test compounds were assessed following acute and chronic exposure conditions. […] Each compound was evaluated over a broad range of concentrations (0, 0.5, 1, 5, 10, 50, 100 and 250 μg/ml) with cells treated with equivalent concentrations of vehicle (DMSO) serving as controls.
# Cell proliferation assay: Cell proliferation was assessed using a standard colorimetric indicator of metabolic activity (CIMA) assay. In this assay, the reduction of yellow tetrazolium salt (MTT) to purple formazan by mitochondrial reductase enzymes in viable cells was evaluated as a measure of metabolic activity to determine the extent of cell proliferation within a culture. […]
# MDCK cells = experiment: Cytotoxicity assay (MTT/CIMA) in MDCK cells (Example 7)
# U373 astroglioma cells = experiment: MTT (CIMA) cell proliferation assay, acute and chronic exposure (Example 3); conditions: acute (24 h) and chronic (72 h) treatment, 0.5-250 μg/ml
# Protocol: as §1
# (§2) Cells and cell culture: Proof-of-principle studies in this example focused on two human brain cancer cell lines, namely SH-SY5Y neuroblastoma cells and U373 astroglioma cells. […] Both cells were maintained in (50:50) F12:DMEM medium supplemented with 10% fetal calf serum (FCS) and antibiotics in a humidified, 5% CO2 environment. Cells were passaged as required by trypsinization.
# (§3) Assays conditions: The effects of the test compounds were assessed following acute and chronic exposure conditions. […] The test compounds were evaluated over a broad range of concentrations (0, 0.5, 1, 5, 10, 50, 100 and 250 μg/ml) with cells treated with equivalent concentrations of vehicle (DMSO) serving as controls.
# (§4) Cell proliferation assay: Cell proliferation was assessed using a standard colorimetric indicator of metabolic activity (CIMA) assay. In this assay, the reduction of yellow tetrazolium salt (MTT) to purple formazan by mitochondrial reductase enzymes in viable cells was evaluated as a measure of metabolic activity to determine the extent of cell proliferation within a culture. The resulting colour change that conferred a change in absorbance was quantified using a spectrophotometer (λ=500-600). Samples were diluted as required to ensure that values obtained with the MTT assay fell within the linear range of the protocol. Qualitative microscopic evaluation of treated cultures was used to determine if overt cytotoxicity was present and to supplement the quantitative CIMA data.
# [4] = tested on: SH-SY5Y neuroblastoma cells; experiment: as above
# Protocol: as §1, §2, §3, §4
compound,measurement,setting,value
"CC(C)(C)OC(=O)N1CCCC1O (centres unmarked) [I(b), tert-butyl 2-hydroxypyrrolidine-1-carboxylate]",CPE score,"[1]; 0.5 μg/ml, virus + DMSO control 3",1
same,CPE score,"[1]; 0.5 μg/ml, virus + DMSO control 4",2
same,CPE score,"[1]; 1.0 μg/ml, virus + DMSO control 3",1
same,CPE score,"[1]; 1.0 μg/ml, virus + DMSO control 4",2
same,CPE score,"[1]; 5.0 μg/ml, virus + DMSO control 3",1
same,CPE score,"[1]; 5.0 μg/ml, virus + DMSO control 4",3
same,CPE score,"[1]; 10 μg/ml, virus + DMSO control 3",3
same,CPE score,"[1]; 10 μg/ml, virus + DMSO control 4",4
same,CPE score,"[1]; 25 μg/ml, virus + DMSO control 3",3
same,CPE score,"[1]; 25 μg/ml, virus + DMSO control 4",4
same,CPE score,"[1]; 50 μg/ml, virus + DMSO control 3",3
same,CPE score,"[1]; 50 μg/ml, virus + DMSO control 4",4
same,CPE score,"[1]; 100 μg/ml, virus + DMSO control 3",3
same,CPE score,"[1]; 100 μg/ml, virus + DMSO control 4",4
same,effect on CPE (summary in words),[1]; comparatively lower concentrations,lower concentrations more greatly reduced CPE
same,effect on CPE (summary in words),[2]; Influenza B infection,little impact on CPE
same,CPE score,"[2]; 24 hpi, 0.5 μg/ml",3
same,CPE score,"[2]; 24 hpi, 1.0 μg/ml",4
same,CPE score,"[2]; 24 hpi, 5.0 μg/ml",4
same,CPE score,"[2]; 24 hpi, 10 μg/ml",3
same,CPE score,"[2]; 24 hpi, 25 μg/ml",4
same,CPE score,"[2]; 24 hpi, 50 μg/ml",3
same,CPE score,"[2]; 24 hpi, 100 μg/ml",4
same,CPE score,"[2]; 48 hpi, 0.5 μg/ml",3
same,CPE score,"[2]; 48 hpi, 1.0 μg/ml",4
same,CPE score,"[2]; 48 hpi, 5.0 μg/ml",4
same,CPE score,"[2]; 48 hpi, 10 μg/ml",4
same,CPE score,"[2]; 48 hpi, 25 μg/ml",4
same,CPE score,"[2]; 48 hpi, 50 μg/ml",3
same,CPE score,"[2]; 48 hpi, 100 μg/ml",3
same,viability/proliferation,[3],dose-dependent decreases in viability/proliferation
same,"Toxicity (MTT), fold changes relative to vehicle controls","MDCK cells; 24 h exposure, 0.5 μg/ml",1.02 fold
same,"Toxicity (MTT), fold changes relative to vehicle controls","MDCK cells; 24 h exposure, 1.0 μg/ml",1.07 fold
same,"Toxicity (MTT), fold changes relative to vehicle controls","MDCK cells; 24 h exposure, 5.0 μg/ml",1.09 fold
same,"Toxicity (MTT), fold changes relative to vehicle controls","MDCK cells; 24 h exposure, 10 μg/ml",1.00 fold
same,"Toxicity (MTT), fold changes relative to vehicle controls","MDCK cells; 24 h exposure, 25 μg/ml",1.08 fold
same,"Toxicity (MTT), fold changes relative to vehicle controls","MDCK cells; 24 h exposure, 50 μg/ml",1.13 fold
same,"Toxicity (MTT), fold changes relative to vehicle controls","MDCK cells; 24 h exposure, 100 μg/ml",1.09 fold
same,"Toxicity (MTT), fold changes relative to vehicle controls","MDCK cells; 72 h exposure, 0.5 μg/ml",0.99 fold
same,"Toxicity (MTT), fold changes relative to vehicle controls","MDCK cells; 72 h exposure, 1.0 μg/ml",1.00 fold
same,"Toxicity (MTT), fold changes relative to vehicle controls","MDCK cells; 72 h exposure, 5.0 μg/ml",0.94 fold
same,"Toxicity (MTT), fold changes relative to vehicle controls","MDCK cells; 72 h exposure, 10 μg/ml",0.97 fold
same,"Toxicity (MTT), fold changes relative to vehicle controls","MDCK cells; 72 h exposure, 25 μg/ml",1.04 fold
same,"Toxicity (MTT), fold changes relative to vehicle controls","MDCK cells; 72 h exposure, 50 μg/ml, decreases exceeding 25% considered toxic",0.99 fold
same,"Toxicity (MTT), fold changes relative to vehicle controls","MDCK cells; 72 h exposure, 100 μg/ml, decreases exceeding 25% considered toxic",0.89 fold
same,cytotoxicity (summary in words),MDCK cells; higher concentrations (≧25 μg/ml),did not evidence cytotoxicity
same,overt cell death / reductions in MTT activity,U373 astroglioma cells,Neither overt cell death nor significant reductions in MTT activity
same,decrease in MTT activity,"[4]; SH-SY5Y, acute treatment (24 h), 0.25 mg/ml",approximately 30%
same,change in MTT activity,"[4]; SH-SY5Y, acute treatment (24 h), other concentrations evaluated (below 0.25 mg/ml)",No significant change in MTT activity
same,decrease in MTT activity,"[4]; SH-SY5Y, chronic treatment (72 h), 50 μg/ml",25%
same,decrease in MTT activity,"[4]; SH-SY5Y, chronic treatment (72 h), 100 μg/ml",25%
same,decrease in MTT activity,"[4]; SH-SY5Y, chronic treatment (72 h), 250 μg/ml",47%
same,LD50,"[4]; select cell types, chronic conditions (72 h)",~0.25 mg/mL
